Target: Histone deacetylase
Assay: In vitro residual activity against Histone deacetylase (HDAC) at 1 uM concentration

SMILES | residual activity
Br.CC(C)(C)c1ccc(CNCCCCNCCCNC(=O)CCCCCCC(=O)NO)cc1 | 50.6%
O=C(CCCCC(=O)NCCCCNCc1ccccc1-c1ccccc1)NO | 83.7%
Cc1ccc(CNCCCCNC(=O)CCCCC(=O)NO)cc1 | 55.8%
CN(C)c1ccc(CNCCCCNC(=O)CCCCCCC(=O)NO)cc1.O=C(O)C(F)(F)F | 66.1%
O=C(CCCCC(=O)NCCCCN(Cc1ccccc1-c1ccccc1)Cc1ccccc1-c1ccccc1)NO | 96.3%
CN(C)c1ccc(CN(CCCCN)C(=O)CCCCCCC(=O)NO)cc1.O=C(O)C(F)(F)F | 84.4%
CN(C)c1ccc(CNCCCCNC(=O)CCCCC(=O)NO)cc1.O=C(O)C(F)(F)F | 89.7%
Cc1ccc(CNCCCCNC(=O)CCCCCCC(=O)NO)cc1.O=C(O)C(F)(F)F | 46.8%
Br.O=C(CCCCC(=O)NCCCNCCCNCCCNCCCNCC1CCCCCC1)NO | 59%
Br.O=C(CCCCCCC(=O)NCCCNCCCCNCCC(c1ccccc1)c1ccccc1)NO | 26.1%
Br.O=C(CCCCC(=O)NCCCNCCCCNCCC(c1ccccc1)c1ccccc1)NO | 80.2%
Br.CN(C)c1ccc(CN(CCCNCCCCN)C(=O)CCCCC(=O)NO)cc1 | 40%
Br.CC(C)(C)c1ccc(CNCCCCNCCCNC(=O)CCCCC(=O)O)cc1 | 98.5%
Br.CC(C)(C)c1ccc(CNCCCCNCCCNC(=O)CCCCC(=O)NO)cc1 | 25.1%

Source: ChEMBL document CHEMBL1141108, “Alkyl-substituted polyaminohydroxamic acids: a novel class of targeted histone deacetylase inhibitors” (J Med Chem, 2005)
